Paper PMC5123632 (2016)

System: nasT'FRET (DNA, G4) GGGAGCGGGACGGGGGCCGGG
Assay: FRET melting
Details: 100 mM Na+; 10 mM sodium cacodylate pH 7.4; 1 μM ligand (stated for ligand 1)

ΔTm: 30 °C
Structure (SMILES): C[n+]1ccc(-c2c3nc(c(-c4cc[n+](C)cc4)c4ccc([nH]4)c(-c4cc[n+](C)cc4)c4nc(c(-c5cc[n+](C)cc5)c5ccc2[nH]5)C=C4)C=C3)cc1
